Some targets named below: Cytochrome P450 2D6 (Homo sapiens, UniProt P10635); Cytochrome P450 3A4 (Homo sapiens, UniProt P08684); Cytochrome P450 2C9 (Homo sapiens, UniProt P11712).
Series [1] has as its target T1, Long-chain-fatty-acid--AMP ligase FadD28 (Mycobacterium tuberculosis, UniProt P9WQ59).
T1 sequence (P9WQ59 whole entry): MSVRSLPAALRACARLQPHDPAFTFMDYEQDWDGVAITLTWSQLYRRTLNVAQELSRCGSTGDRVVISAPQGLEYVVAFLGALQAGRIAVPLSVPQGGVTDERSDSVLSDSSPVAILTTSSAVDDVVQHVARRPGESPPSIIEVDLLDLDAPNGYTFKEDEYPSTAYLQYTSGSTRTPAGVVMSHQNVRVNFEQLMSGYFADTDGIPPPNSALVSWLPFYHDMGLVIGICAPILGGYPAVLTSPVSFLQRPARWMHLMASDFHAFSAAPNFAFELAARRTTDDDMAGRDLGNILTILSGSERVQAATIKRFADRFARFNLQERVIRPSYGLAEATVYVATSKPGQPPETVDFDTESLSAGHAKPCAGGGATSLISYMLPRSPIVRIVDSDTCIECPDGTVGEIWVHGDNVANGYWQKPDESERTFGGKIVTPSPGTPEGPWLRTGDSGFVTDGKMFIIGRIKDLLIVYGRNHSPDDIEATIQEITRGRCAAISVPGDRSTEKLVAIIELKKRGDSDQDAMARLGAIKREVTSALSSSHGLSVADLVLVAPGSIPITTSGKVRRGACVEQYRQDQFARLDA
The series can be described thus: Fluorescence polarization aasay to screen for inhibitors that compete for the binding of FadD28 to a bisubstrate Measured in Biochemical System Using Plate Reader - 2147-01_Inhibitor_Dose_CherryPick_Activity. In kind it is functional, Mycobacterium tuberculosis H37Rv.

The nature of series [2]: inhibitors of firefly luciferase expression or activity, dose response, H4 neuroglioma cells, luminescence (AID 1990). In kind it is functional, cell-based.
The nature of series [3]: cells. The series is classed as functional, cell-based.
Series [4] is described as follows: Luminescence Cell-Based Dose Response HTS to Identify Inhibitors of 5'UTR Stem-Loop Driven Prion Protein mRNA Translation in H4 Neuroglioblastoma Cells. [Related pubchem assays: 1827 (Project Summary), 1813 (Primary HTS)]. The series is classed as functional.
Series [5] can be described thus: inhibitors of SNCA 5'UTR-driven reporter translation, confirmation, H4 neuroglioma cells, luminescence (AID 1988). In kind it is functional, cell-based.
Series [6] in a line: cells. The series is classed as functional, cell-based. The source holds these as a separate data set.
Series [7] in a line: inhibitors of PGC1a acetylation in cells, dose response, cell-based, cherry-picked samples (AID 720514).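 Further: potency may reflect raised or lowered acetylation signal.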 The series is classed as functional.
Series [8] has as its target T2, Polyadenylate-binding protein 1 (Homo sapiens, UniProt P11940). Briefly: PABP1 MLLE–PAM2 interaction inhibitors, dose response, miRNA deadenylation inhibitor project, biochemical, fluorescence polarization, Cy5-PAM2 peptide, secondary (AID 602260). The series is classed as functional. The conditions noted are these: read-out: IC50_Mean.
Series [9] addresses T2, Polyadenylate-binding protein 1. The series can be described thus: PABP1 MLLE–PAM2 binding inhibitor potency, dose response, biochemical, fluorescence polarization, FITC-PAM2 peptide (AID 602259). In kind it is functional. To be noted: read-out: IC50_Mean. A general note: Fluorescence polarisation rises when a labelled molecule tumbles more slowly, as on binding a larger partner.

Series [10] deals with Luciferin 4-monooxygenase (Photinus pyralis, UniProt P08659). The series can be described thus: firefly luciferase enzyme inhibitors, dose response, biochemical, luminescence (AID 1891).
Chain of Luciferin 4-monooxygenase (P08659 whole entry): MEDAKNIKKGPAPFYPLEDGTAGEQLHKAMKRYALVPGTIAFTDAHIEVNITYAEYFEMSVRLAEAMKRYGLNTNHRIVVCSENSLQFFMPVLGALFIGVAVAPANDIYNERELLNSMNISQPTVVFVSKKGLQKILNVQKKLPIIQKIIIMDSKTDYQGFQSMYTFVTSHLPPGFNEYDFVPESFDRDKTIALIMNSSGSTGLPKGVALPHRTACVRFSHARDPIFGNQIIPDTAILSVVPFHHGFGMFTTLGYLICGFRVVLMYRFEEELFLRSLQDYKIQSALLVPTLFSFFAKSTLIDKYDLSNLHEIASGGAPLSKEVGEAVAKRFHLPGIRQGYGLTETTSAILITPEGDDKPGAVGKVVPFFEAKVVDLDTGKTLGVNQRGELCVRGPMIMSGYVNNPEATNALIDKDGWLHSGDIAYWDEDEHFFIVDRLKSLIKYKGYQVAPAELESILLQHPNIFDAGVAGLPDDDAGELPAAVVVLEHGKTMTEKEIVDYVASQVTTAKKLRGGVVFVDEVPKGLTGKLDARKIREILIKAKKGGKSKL
Series [11] can be described thus: Luminescence Cell-Based Dose Confirmation HTS to Identify Inhibitors of Platelet Dense Granule Release. [Related pubchem assays: 1663 (Primary HTS), 1678 (Summary of Project)]. In kind it is functional.
A short description of series [12]: A549 cell cytotoxicity, dose response, cytotoxicity control, plate reader, cherry-pick, antagonist series (AID 743412). The series is classed as functional, cell-based.
Series [13] can be described thus: LGR2 antagonists, dose response, cell-based, HEK293, CRE-luciferase reporter, cherry pick, set 2 (AID 743343).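 Further: transfected cells were stimulated with diluted bursicon conditioned medium after compound addition.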 The series is classed as functional. For orientation: Reporter assays use an easily measured gene product as a stand-in for the process of interest.
The nature of series [14]: MC4R antagonists, dose response, counter-screen for LGR2 antagonist project, cell-based, plate reader, cherry pick (AID 743444).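 Further: transfected HEK 293 cells stimulated with alpha-MSH peptide; potency of inhibitors of the alpha-MSH evoked signal.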 The series is classed as functional. A general note: A counterscreen serves to expose hits that act by an unwanted route or on another target.
A short description of series [15]: HEK293 cell cytotoxicity, dose response, cytotoxicity control, plate reader, cherry-picked samples (AID 743446). The series is classed as functional, cell-based.
Series [16] addresses Glucose-6-phosphate 1-dehydrogenase (Homo sapiens, UniProt P11413). The series can be described thus: human G6PD enzyme inhibitors, dose response, selectivity assay for P. falciparum G6PD inhibitor project, biochemical, fluorescence (AID 504792). In kind it is functional.
The target of series [17] is T3, Calpain-2 catalytic subunit (Sus scrofa, UniProt P43367).
T3 sequence (P43367 whole entry): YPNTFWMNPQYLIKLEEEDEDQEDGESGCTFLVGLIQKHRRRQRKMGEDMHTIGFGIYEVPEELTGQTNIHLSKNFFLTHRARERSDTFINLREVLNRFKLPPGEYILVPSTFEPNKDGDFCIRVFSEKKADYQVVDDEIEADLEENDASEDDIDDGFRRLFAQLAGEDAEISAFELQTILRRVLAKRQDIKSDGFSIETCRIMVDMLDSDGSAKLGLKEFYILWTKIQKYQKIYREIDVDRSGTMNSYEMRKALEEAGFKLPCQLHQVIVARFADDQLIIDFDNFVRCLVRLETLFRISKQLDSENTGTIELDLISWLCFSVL
The series can be described thus: pig calpain II inhibitor potency, dose response, biochemical, fluorogenic peptide substrate (AID 1420). The series is classed as functional.

The target in the next series is T4, Cytochrome P450 1A2 (Homo sapiens, UniProt P05177).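 Further: PubChem cytochrome P450 panel assay, CYP1A2 panel member.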
T4 sequence (P05177 whole entry): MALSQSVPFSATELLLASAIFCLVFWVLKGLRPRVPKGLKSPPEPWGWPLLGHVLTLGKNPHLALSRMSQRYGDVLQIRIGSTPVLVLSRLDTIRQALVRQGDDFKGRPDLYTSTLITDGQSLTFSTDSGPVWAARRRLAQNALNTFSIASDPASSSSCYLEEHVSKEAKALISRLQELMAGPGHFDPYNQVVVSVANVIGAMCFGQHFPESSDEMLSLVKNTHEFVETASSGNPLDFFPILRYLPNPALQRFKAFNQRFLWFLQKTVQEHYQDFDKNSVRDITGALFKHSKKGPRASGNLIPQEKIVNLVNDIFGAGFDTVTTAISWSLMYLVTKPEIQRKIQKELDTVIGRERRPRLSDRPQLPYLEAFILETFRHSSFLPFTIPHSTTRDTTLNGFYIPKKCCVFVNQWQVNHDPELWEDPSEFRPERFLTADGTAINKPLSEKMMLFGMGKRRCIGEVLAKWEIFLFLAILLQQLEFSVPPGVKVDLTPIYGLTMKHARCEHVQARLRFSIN

Series [18] in a line: NIH-3T3 fibroblast cytotoxicity, dose response, cytotoxicity control, cell-based, fluorescence, Alamar Blue, secondary assay (AID 2327).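 Further: NIH-3T3 mouse fibroblasts cultured with fluconazole at 8 µg/mL.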 In kind it is functional.
Series [19] in a line: C. albicans growth with fluconazole, confirmation, fluorescence, retest (AID 2467). In kind it is functional, cell-based.
Series [20] can be described thus: inhibitors of intracellular T. cruzi replication, confirmation, NIH3T3 host cells, beta-gal luminescence (AID 2044).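 Further: intracellular parasites grown in NIH/3T3 mouse fibroblasts as host cells; luminescent beta-galactosidase reporter signal from transgenic T. cruzi replicating inside host cells; inhibitors lower the luminescence signal.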 In kind it is functional, cell-based.
The nature of series [21]: cytotoxicity toward NIH3T3 fibroblasts, dose response, counter-screen, cell-based, ATP luminescence, mouse fibroblasts (AID 2010).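 Further: cells exposed to compound for about 90 hours before reading.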 The series is classed as functional.
A short description of series [22]: THP-1 cell cytotoxicity, dose response, cytotoxicity control for non-replicating M. tuberculosis project (AID 489025). The series is classed as functional.
The nature of series [23]: cells. The series is classed as functional.
Another series deals with INS1. The series can be described thus: beta cell apoptosis inhibitors, cytokine rescue, dose response, luminescence, retest (AID 449756).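 Further: cell death triggered by IL-1 beta plus TNF-alpha plus IFN-gamma mixture; protective hits raise ATP signal compared with cytokine alone wells.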 The conditions noted are these: Rattus norvegicus. In kind it is functional, cell-based.

SMILES strings stand for the structures. The source made the active and inactive calls.

Chain of Glucose-6-phosphate 1-dehydrogenase (P11413 whole entry): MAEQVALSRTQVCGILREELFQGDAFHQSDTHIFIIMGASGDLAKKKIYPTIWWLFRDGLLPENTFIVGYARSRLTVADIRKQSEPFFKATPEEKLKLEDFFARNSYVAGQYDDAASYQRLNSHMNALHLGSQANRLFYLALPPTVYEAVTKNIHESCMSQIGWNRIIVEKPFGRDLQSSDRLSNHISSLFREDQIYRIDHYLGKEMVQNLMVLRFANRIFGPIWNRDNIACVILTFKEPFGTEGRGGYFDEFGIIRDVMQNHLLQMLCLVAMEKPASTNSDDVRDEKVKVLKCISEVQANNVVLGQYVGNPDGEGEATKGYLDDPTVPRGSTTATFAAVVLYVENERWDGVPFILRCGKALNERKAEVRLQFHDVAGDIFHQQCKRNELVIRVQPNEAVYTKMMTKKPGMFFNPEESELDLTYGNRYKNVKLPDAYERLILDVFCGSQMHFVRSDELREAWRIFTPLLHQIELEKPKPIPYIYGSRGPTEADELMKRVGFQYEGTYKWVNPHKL
T2 sequence (P11940 whole entry): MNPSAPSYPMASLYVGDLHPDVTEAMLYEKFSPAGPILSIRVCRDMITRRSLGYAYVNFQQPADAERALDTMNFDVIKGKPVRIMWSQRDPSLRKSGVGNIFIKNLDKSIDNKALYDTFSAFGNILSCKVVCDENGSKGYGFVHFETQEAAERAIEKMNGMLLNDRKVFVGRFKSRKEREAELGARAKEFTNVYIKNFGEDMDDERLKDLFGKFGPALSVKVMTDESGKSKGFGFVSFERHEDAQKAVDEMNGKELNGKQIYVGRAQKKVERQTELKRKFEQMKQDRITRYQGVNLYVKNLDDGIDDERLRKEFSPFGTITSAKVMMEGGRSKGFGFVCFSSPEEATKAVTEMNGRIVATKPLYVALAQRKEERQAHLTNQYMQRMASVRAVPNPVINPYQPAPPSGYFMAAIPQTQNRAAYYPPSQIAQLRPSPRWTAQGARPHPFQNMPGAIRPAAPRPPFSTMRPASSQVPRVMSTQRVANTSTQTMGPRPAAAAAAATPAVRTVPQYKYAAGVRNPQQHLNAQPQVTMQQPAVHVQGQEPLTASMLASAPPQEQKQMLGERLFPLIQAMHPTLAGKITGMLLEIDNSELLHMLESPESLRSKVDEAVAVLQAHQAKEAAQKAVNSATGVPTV
Chain of Cytochrome P450 2C9 (P11712 whole entry): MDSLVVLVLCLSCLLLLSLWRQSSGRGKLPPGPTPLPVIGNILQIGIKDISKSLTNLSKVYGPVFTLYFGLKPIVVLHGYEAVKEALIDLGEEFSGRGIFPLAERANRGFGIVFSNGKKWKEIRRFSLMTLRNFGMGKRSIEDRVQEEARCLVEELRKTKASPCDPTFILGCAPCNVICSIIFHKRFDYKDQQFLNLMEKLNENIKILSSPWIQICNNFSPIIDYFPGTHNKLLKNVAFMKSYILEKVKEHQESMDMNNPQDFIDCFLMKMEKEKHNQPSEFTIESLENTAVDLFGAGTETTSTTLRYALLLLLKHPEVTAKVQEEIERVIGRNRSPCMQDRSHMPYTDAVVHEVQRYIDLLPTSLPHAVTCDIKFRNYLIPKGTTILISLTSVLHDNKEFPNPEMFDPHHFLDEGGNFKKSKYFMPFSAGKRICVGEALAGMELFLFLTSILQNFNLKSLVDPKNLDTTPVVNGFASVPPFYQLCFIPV
Chain of Cytochrome P450 3A4 (P08684 whole entry): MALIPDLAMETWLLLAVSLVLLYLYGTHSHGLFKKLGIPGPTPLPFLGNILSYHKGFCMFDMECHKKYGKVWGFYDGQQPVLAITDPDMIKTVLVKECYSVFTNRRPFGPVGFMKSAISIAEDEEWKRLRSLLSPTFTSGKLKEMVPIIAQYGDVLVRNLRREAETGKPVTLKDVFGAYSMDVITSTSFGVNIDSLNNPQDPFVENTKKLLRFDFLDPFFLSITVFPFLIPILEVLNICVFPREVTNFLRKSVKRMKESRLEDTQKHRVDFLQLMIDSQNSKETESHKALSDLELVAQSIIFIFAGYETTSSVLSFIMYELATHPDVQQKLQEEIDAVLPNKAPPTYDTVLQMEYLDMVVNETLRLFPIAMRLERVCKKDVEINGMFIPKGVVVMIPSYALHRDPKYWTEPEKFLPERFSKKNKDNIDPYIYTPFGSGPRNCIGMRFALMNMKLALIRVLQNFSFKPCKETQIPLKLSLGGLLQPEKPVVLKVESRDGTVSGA
Chain of Cytochrome P450 2D6 (P10635 whole entry): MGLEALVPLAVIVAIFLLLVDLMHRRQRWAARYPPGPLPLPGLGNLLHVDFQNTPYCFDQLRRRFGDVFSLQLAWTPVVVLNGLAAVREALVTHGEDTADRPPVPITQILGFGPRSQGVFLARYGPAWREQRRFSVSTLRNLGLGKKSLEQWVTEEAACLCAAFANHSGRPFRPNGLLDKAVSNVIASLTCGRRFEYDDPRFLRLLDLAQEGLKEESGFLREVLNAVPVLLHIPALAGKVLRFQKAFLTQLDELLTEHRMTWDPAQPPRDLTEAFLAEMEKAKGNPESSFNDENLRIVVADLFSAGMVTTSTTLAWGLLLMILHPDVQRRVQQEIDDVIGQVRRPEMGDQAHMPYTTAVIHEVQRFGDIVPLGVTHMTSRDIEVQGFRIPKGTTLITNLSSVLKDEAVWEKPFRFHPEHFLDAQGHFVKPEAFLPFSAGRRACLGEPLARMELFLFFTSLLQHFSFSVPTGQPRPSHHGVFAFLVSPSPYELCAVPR

As usually defined, the AC50 is the midpoint of the concentration-response curve, whichever way the signal moves. `O=C(O)CCC(=O)Nc1ccc(C(=O)OCC(=O)c2ccc(Cl)cc2Cl)cc1`: in series [1], the AC50 is > 100 µM (inactive).
Regarding `CCN(CC)S(=O)(=O)c1cc(C(=O)OCC(=O)Nc2cccc(Br)c2)ccc1F`, the AC50 in series [1] is 6.81 µM (active).
For orientation: EC50 means the concentration that produces a half-maximal response. As for `O=C(N/N=C(\Cc1ncc[nH]1)c1ccccc1)c1ccccc1`, the EC50 is 12.7 µM (active) in [2]; > 350 µM (not active) in the series “cells [3]”; > 120 µM (not active) in series [4]; > 120 µM (not active) in series [5]; > 350 µM (not active) in the series “cells [6]”.
On to `C/C(=N\NC(=O)Cc1ccc(Br)cc1)c1cccnc1`, for which the figures for the concentration giving a half-maximal response (EC50) in “cells [3]” and in “cells [6]” were > 350 µM (not active) and 36.3 µM (active), respectively.
As for `COc1ccc(C#Cc2ccc([C@H]3[C@@H](CO)N4CCCCN(C(=O)Nc5ccc(F)cc5)C[C@H]34)cc2)cc1`, in [7], the concentration at half-maximal activity (AC50) is 13.9 µM (active).
For the molecule `Cc1ccc(N=C(S)C2=C(O)c3sccc3N(C)S2(=O)=O)cc1`, the IC50 in series [8] and in [9] was > 66 µM (inactive) throughout. Also, in series [1], the AC50 was > 100 µM (inactive).
As to `COc1ccc(-c2cc(-c3ccccc3)no2)cc1`, the EC50 in series [10] was 895 nM (active); in [11] it was 10.3 µM (active). In addition, the AC50 in series [12] is 45.1 µM (active); in series [13], 5.01 µM (active); in series [14], 3.84 µM (active); in series [15], > 52 µM (inactive).
In the case of `CCOC(=O)c1ccc(-n2c(N)c(C(=O)NCC3CCCO3)sc2=S)cc1` (stereo not drawn), the IC50 in series [16] was > 80 µM (inactive).
Turning to `Cc1cccc(-n2nnc(C(=O)NC3CCCc4ccccc43)c2N)c1` (stereo not drawn), the IC50 in series [17] is 7.05 µM (not active). The AC50 at Cytochrome P450 2D6 was 7.94 µM (inconclusive); on Cytochrome P450 1A2, 15.8 µM (inconclusive); on Cytochrome P450 3A4 it was 1.12 µM (inconclusive); on Cytochrome P450 2C9, “inconclusive”.
`COc1ccccc1NC(c1cccnc1)c1ccc2cccnc2c1O` (stereo not drawn): the EC50 in series [18] was > 160 µM (inconclusive); in the series “cells [3]”, 116 µM (active); in [19] it was > 38 µM (not active); in the series “cells [6]” it was > 350 µM (not active).
On to `CC1(OC(=O)C2CCCC2)C(=O)C=C2C=C(c3ccsc3)N(Cc3ccc4c(c3)OCO4)C=C2C1=O` (stereo not drawn), for which the IC50 in [16] was > 80 µM (inactive).
On to `Cc1cccc(N2CCN(c3ccc(N4C(=O)CCCC4=O)cc3[N+](=O)[O-])CC2C)c1` (stereo not drawn), for which the EC50 in “cells [3]” and in the series “cells [6]” was > 350 µM (not active) throughout.
In the case of `O=C(CCC(=O)OCC(=O)c1ccc([N+](=O)[O-])cc1)Nc1ccccc1Cl`, in series [16], the IC50 is > 80 µM (inactive).
The term CC50 denotes the concentration giving 50% cytotoxicity. With `O=C(Nc1ccc(S(=O)(=O)N2CCOCC2)cc1)c1ccc([N+](=O)[O-])s1`, the EC50 is 394 nM (active) in [20] and 42.8 µM (active) in series [21]. Also, the CC50 in series [22] is 23.2 µM (active). Also, the IC50 in “cells [23]” was 700 nM (active). Further, the AC50 with INS1 is 7.03 µM (active).
Regarding `Cc1cccc(-c2ccc([C@H]3[C@@H](CO)N4CCCCN(C(=O)c5cccnc5)C[C@@H]34)cc2)c1`, the AC50 in [12] was 38.4 µM (active); in series [13] it was 20.8 µM (active); in series [14], 23.5 µM (active); in [15] it was > 52 µM (inactive).
For `C=CCc1ccccc1OCC(=O)N/N=C/c1ccccc1OCC`, the IC50 in [16] was > 80 µM (inactive).

These data come from ChEMBL document CHEMBL1201862, “PubChem BioAssay data set” (2004).
